{
  "source": "patent US20240207243A1",
  "about": "“METHOD OF TREATING LAMINOPATHIES” (Eiger Biopharmaceuticals, Inc., priority 2019, published 2024)",
  "key": {"[1]": {"conditions": "in vivo", "method": "(§1) This study was conducted as an open-label, drug-drug interaction (DDI) study, a food-effect study with LNF alone, and a food-effect study with LNF+ritonavir (RTV). This study assessed the effects of multiple-dose LNF (75 mg twice daily×5 days) on the PK of single dose omeprazole (1×40-mg capsule) relative to omeprazole alone in.\nOther sensitive CYP2C19 substrates should be monitored during concomitant administration with LNF. […] Extent of exposure was 6,200 ng·h/mL and the T1/2 was 5.57 hours. Trough LNF concentrations increased from Day 7 to Day 9 (AM). By Day 10 trough levels stabilized, indicating steady-state LNF levels were achieved over 5 days of consecutive dosing. […] There were no deaths, SAEs, or other significant AEs. All AEs were Grade 1 or 2."}, "CYP3A4": {"molecular_target": "CYP3A4 (Homo sapiens, UniProt P08684)", "sequence (P08684 whole entry)": "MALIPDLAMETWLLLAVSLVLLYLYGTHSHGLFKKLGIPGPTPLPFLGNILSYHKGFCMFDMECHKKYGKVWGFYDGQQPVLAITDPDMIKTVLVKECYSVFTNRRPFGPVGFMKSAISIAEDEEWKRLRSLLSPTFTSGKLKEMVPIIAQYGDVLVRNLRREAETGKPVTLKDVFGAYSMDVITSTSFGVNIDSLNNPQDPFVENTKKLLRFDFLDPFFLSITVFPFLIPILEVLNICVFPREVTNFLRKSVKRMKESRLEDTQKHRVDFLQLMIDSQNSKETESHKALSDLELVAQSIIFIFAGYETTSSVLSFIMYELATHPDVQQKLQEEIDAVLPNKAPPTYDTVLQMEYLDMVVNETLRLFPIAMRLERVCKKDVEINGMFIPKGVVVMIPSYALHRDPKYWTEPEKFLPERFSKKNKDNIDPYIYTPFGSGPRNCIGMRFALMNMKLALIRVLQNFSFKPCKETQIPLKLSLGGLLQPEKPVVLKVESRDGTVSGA", "assay": "Metabolism of lonafarnib", "excerpt": "Lonafarnib has not been studied in subjects with hepatic impairment."}, "CYP2C19 [2]": {"molecular_target": "T1, CYP2C19 (Homo sapiens, UniProt P33261)", "T1 sequence (P33261 whole entry)": "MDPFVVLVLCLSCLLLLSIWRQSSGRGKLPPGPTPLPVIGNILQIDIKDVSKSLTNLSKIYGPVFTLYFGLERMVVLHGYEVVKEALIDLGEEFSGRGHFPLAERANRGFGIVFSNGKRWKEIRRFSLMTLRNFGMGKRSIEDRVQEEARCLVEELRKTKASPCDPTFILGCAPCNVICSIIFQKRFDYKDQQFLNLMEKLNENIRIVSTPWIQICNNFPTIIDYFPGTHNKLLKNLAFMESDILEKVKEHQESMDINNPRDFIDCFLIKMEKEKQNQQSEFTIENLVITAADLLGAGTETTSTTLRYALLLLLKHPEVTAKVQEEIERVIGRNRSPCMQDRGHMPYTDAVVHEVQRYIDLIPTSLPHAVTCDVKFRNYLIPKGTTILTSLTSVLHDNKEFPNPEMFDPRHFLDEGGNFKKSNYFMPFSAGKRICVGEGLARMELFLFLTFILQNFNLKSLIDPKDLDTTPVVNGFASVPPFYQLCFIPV", "assay": "In vitro and in vivo CYP inhibition studies (CYP2C19)", "excerpt": "(§2) Concomitant administration of lonafarnib with sensitive CYP3A or CYP2C19 substrates and strong or moderate CYP3A4 inhibitors or inducers, including herbal supplements can increase exposure of the co-administered medicinal product or lonafarnib resulting in risk of clinically significant adverse events or decrease exposure of lonafarnib, which may impact efficacy. Medicinal products that are sensitive CYP3A or CYP2C19 substrates, strong or moderate CYP3A inhibitors, or strong or moderate CYP3A inducers should be discontinued. If treatment cannot safety be discontinued or an alternative drug is not available, lonafarnib should be stopped during the course of treatment unless the benefit outweighs the possible risks."}, "P-gp": {"molecular_target": "P-gp (Homo sapiens, UniProt P08183)", "sequence (P08183 whole entry)": "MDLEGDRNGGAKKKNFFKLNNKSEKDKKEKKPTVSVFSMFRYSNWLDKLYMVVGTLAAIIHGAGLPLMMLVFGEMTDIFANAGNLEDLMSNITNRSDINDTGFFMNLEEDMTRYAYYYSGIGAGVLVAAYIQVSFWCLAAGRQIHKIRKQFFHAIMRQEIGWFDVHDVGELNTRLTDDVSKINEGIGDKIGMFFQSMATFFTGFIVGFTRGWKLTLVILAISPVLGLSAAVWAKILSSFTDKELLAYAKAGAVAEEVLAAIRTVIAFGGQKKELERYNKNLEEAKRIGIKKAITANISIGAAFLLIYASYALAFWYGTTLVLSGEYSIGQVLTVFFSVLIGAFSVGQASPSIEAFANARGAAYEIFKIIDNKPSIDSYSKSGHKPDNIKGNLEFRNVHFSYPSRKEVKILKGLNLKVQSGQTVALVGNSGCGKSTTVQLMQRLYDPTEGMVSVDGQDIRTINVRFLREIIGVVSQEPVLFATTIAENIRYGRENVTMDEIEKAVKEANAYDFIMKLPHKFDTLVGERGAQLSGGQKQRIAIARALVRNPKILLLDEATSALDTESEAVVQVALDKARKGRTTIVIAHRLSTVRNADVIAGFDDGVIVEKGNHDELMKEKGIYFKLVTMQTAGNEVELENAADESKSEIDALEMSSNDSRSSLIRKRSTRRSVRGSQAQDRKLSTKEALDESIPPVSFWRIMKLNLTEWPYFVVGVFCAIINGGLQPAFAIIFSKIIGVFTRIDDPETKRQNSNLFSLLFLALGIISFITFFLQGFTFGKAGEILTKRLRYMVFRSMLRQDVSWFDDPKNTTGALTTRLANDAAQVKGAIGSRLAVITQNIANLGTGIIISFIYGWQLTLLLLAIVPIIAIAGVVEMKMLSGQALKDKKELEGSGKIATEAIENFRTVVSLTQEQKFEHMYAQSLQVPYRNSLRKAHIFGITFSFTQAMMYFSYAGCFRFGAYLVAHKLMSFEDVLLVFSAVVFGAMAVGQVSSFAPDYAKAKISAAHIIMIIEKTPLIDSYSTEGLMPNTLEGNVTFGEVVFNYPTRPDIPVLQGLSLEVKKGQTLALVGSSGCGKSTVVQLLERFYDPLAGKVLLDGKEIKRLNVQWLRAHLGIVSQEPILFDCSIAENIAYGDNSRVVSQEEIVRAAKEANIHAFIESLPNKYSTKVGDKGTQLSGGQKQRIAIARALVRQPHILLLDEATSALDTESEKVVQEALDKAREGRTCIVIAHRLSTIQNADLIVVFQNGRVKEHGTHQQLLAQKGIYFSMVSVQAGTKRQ", "conditions": "in vivo"}, "CYP3A [3]": {"tested_on": "CYP3A", "assay": "In vitro and in vivo CYP inhibition studies (CYP3A)", "excerpt": "The following medicines are contraindicated when used with lonafarnib and unless otherwise noted, the contraindication is based on the potential for lonafarnib to inhibit metabolism of the co-administered medicinal product, resulting in increased exposure to the co-administered medicinal product and risk of clinically significant adverse effects.\nas §2"}, "CYP2C19 [4]": {"molecular_target": "T1, CYP2C19", "assay": "Drug-drug interaction study: multiple-dose LNF on PK of single-dose omeprazole", "format": "in vivo", "set-up": "single-dose omeprazole, a sensitive CYP2C19 substrate; endogenous in cells; host or cells: study subjects in vivo", "conditions": "for CYP2C19 inhibition in vivo (classification): lonafarnib 75 mg twice daily, omeprazole probe", "method": "as §1"}, "[5]": {"assay": "Food-effect evaluation of single-dose LNF", "format": "in vivo, human", "excerpt": "To evaluate the effect of a high-fat/high-calorie standard breakfast on the single-dose PK of LNF relative to a fasted state in healthy subjects (Group 2).\nTo evaluate the effect of a low-fat/low-calorie breakfast on the single-dose PK of LNF relative to a fasted state in healthy subjects (Group 2).\nThe effect of food (high-fat/high-calorie standard breakfast and low-fat/low-calorie breakfast) on the single-dose PK of LNF relative to the single-dose PK of LNF when administered under fasted conditions was evaluated.\n• Period 1: Oral dose of LNF (75-mg capsule×1) on Day 1 (AM) under fed conditions (high-fat/high-calorie breakfast) • Period 2: Oral dose of LNF (75-mg capsule×1) on Day 4 (AM) under fed conditions (low-fat/low-calorie breakfast) • Period 3: Oral dose of LNF (75-mg capsule×1) on Day 7 (AM) under fasted conditions"}, "CYP3A [6]": {"tested_on": "CYP3A", "assay": "Co-administration of lonafarnib with ketoconazole, a strong CYP3A inhibitor", "format": "in vivo, human", "conditions": "co-administered with ketoconazole 200 mg twice daily"}, "[7]": {"assay": "Multiple-dose lonafarnib PK (100 mg twice daily) in loperamide study", "format": "in vivo, human"}, "[8]": {"assay": "Renal clearance and renal impairment study of lonafarnib", "format": "in vivo, human", "excerpt": "Lonafarnib is renally cleared <1% and no meaningful differences would be expected in subjects with renal impairment. […] Thus, lonafarnib is […]."}, "CYP3A [9]": {"tested_on": "CYP3A"}, "[10]": {"assay": "Safety and tolerability in loperamide interaction study"}, "cytochrome P450 CYP3A": {"tested_on": "cytochrome P450 CYP3A", "assay": "Drug-drug interaction study: multiple-dose lonafarnib on pharmacokinetics of single-dose midazolam", "excerpt": "(§3) An open-label, single-center, two-period, single-sequence, multi-drug-drug interaction study to evaluate the effects of multiple-dose lonafarnib on the pharmacokinetics of single-dose midazolam, a sensitive cytochrome p450-3a substrate.\n(§4) Given the profound increase, sensitive substrates of CYP3A should be contraindicated with lonafarnib."}, "CYP3A [11]": {"tested_on": "CYP3A", "assay": "Drug-drug interaction study: multiple-dose lonafarnib on pharmacokinetics of single-dose midazolam", "conditions": "human, in vivo, 100 mg", "excerpt": "as §3, §4"}, "[12]": {"conditions": "co-administered with lonafarnib vs midazolam alone"}, "[13]": {"conditions": "lonafarnib 75 mg twice daily co-administered"}, "[14]": {"conditions": "single-dose omeprazole with multiple-dose LNF"}, "[15]": {"conditions": "with multiple-dose LNF vs alone"}},
  "note": "“Also recorded” adds a separate entry of the source.",
  "data": [
    {"molecule": "NC(=O)N1CCC(CC(=O)N2CCC([C@H]3c4ncc(Br)cc4CCc4cc(Cl)cc(Br)c43)CC2)CC1", "note": "[lonafarnib]", "values": [
      {"measurement": "adverse event incidence", "setting": "[1]", "value": "More subjects experienced AEs taking LNF"},
      {"measurement": "route of metabolism", "setting": "CYP3A4", "value": "extensively metabolised via the cytochrome P450 enzyme system in the liver; also recorded: metabolized predominantly via CYP3A4 enzyme"},
      {"measurement": "CYP2C19 inhibition (classification)", "setting": "CYP2C19 [2]", "value": "moderate CYP2C19 inhibitor"},
      {"measurement": "P-gp inhibition (classification)", "setting": "P-gp", "value": "weak P-gp inhibitor"},
      {"measurement": "CYP3A inhibition (classification)", "setting": "CYP3A [3]", "value": "potent CYP3A time-dependent and mechanism based inhibitor"},
      {"measurement": "CYP2C19 inhibition in vivo (classification)", "setting": "CYP2C19 [4]", "value": "moderate CYP2C19 inhibitor"},
      {"measurement": "CYP2C19 inhibition in vivo (classification)", "setting": "CYP2C19 [4]; listed as LNF", "value": "direct/reversible inhibition of CYP2C19 in a moderate magnitude"},
      {"measurement": "LNF CL/F higher than fasted state", "setting": "[5]; single 75 mg dose, 2 fed states vs fasted", "value": "33-35%"},
      {"measurement": "decrease of LNF exposure (AUC0-t and AUC0-inf)", "setting": "[5]; single 75 mg dose, fed states vs fasted", "value": "21-29%"},
      {"measurement": "LNF Cmax decrease relative to fasted state", "setting": "[5]; single 75 mg dose, high-fat/high-calorie breakfast", "value": 55, "unit": "%"},
      {"measurement": "LNF Cmax decrease relative to fasted state", "setting": "[5]; single 75 mg dose, low-fat/low-calorie breakfast", "value": 25, "unit": "%"},
      {"measurement": "LNF Tmax relative to fasted state", "setting": "[5]; single dose with high-fat/high-calorie or low-fat/low-calorie meal", "value": "delayed"},
      {"measurement": "lonafarnib AUC increase", "setting": "CYP3A [6]", "value": "approximately 5 fold"},
      {"measurement": "lonafarnib Cmax increase", "setting": "CYP3A [6]", "value": "approximately 3.6 fold"},
      {"measurement": "Cmax", "setting": "[7]; human, in vivo, steady state", "value": 964, "unit": "ng/mL"},
      {"measurement": "half-life", "setting": "[7]; human, in vivo, steady state, read-out: lonafarnib T1/2 (converted)", "value": 4.22, "unit": "h"},
      {"measurement": "lonafarnib extent of exposure", "setting": "[7]; steady state", "value": "6,940 ng·h/mL"},
      {"measurement": "study day by which steady state was achieved", "setting": "[7]; trough lonafarnib concentrations", "value": "≤ 8", "unit": "days"},
      {"measurement": "fraction renally cleared", "setting": "[8]; in vivo", "value": "< 1", "unit": "%"},
      {"measurement": "lonafarnib exposure in renal impairment", "setting": "[8]; subjects with severe renal impairment", "value": "exposures increase"}
    ]},
    {"molecule": "CN(C)C(=O)C(CCN1CCC(O)(c2ccc(Cl)cc2)CC1)(c1ccccc1)c1ccccc1", "note": "[loperamide]", "values": [
      {"measurement": "increase of loperamide exposures (upper limit)", "setting": "CYP3A [9]; coadministration of lonafarnib with loperamide", "value": "up to 4.6 fold"},
      {"measurement": "loperamide Cmax increase", "setting": "CYP3A [9]; single-dose loperamide 2 mg after lonafarnib 100 mg twice daily 5 days vs loperamide alone", "value": "~3", "unit": "fold"},
      {"measurement": "loperamide Kel compared with loperamide alone", "setting": "CYP3A [9]; with multiple-dose lonafarnib", "value": "similar"},
      {"measurement": "tolerability", "setting": "[10]; healthy subjects, lonafarnib 100 mg twice daily and loperamide 2 mg", "value": "generally tolerated lonafarnib and loperamide well"},
      {"measurement": "GI adverse events vs lonafarnib alone", "setting": "[10]; loperamide coadministered with lonafarnib", "value": "fewer GI adverse events"}
    ]},
    {"molecule": "Cc1ncc2n1-c1ccc(Cl)cc1C(c1ccccc1F)=NC2", "note": "[midazolam]", "values": [
      {"measurement": "midazolam AUC increase", "setting": "cytochrome P450 CYP3A; [12]", "value": "approximately 7 fold"},
      {"measurement": "midazolam Cmax increase", "setting": "cytochrome P450 CYP3A; [12]", "value": "approximately 3 fold"},
      {"measurement": "change in midazolam Cmax, AUC0-t and AUC0-inf", "setting": "cytochrome P450 CYP3A; single-dose midazolam with multiple-dose lonafarnib", "value": "increased statistically significantly"},
      {"measurement": "Tmax", "setting": "CYP3A [11]", "value": 0.5, "unit": "h"}
    ]},
    {"molecule": "COc1ccc2[nH]c([S+]([O-])Cc3ncc(C)c(OC)c3C)nc2c1", "note": "(stereo not shown) [omeprazole]", "values": [
      {"measurement": "change in omeprazole CL/F", "setting": "CYP2C19 [4]; coadministration with LNF", "value": "decreased"},
      {"measurement": "change in omeprazole Kel", "setting": "CYP2C19 [4]; coadministration with LNF", "value": "decreased"},
      {"measurement": "change in omeprazole T1/2", "setting": "CYP2C19 [4]; coadministration with LNF", "value": "increased"},
      {"measurement": "omeprazole AUC increase", "setting": "CYP2C19 [4]; [13]", "value": "approximately 1.6 fold"},
      {"measurement": "omeprazole Cmax increase", "setting": "CYP2C19 [4]; [13]", "value": "approximately 1.3 fold"},
      {"measurement": "omeprazole Cmax increase", "setting": "CYP2C19 [4]; single-dose omeprazole 40 mg with multiple-dose LNF 75 mg twice daily 5 days", "value": 44, "unit": "%"},
      {"measurement": "omeprazole AUC0-t and AUC0-inf increase", "setting": "CYP2C19 [4]; [14]", "value": "approximately 2 fold"},
      {"measurement": "omeprazole Tmax with vs without LNF", "setting": "CYP2C19 [4]; [14]", "value": "approximately the same time"},
      {"measurement": "omeprazole AUC0-inf geometric mean ratio (CI)", "setting": "CYP2C19 [4]; [15]", "value": "1.600 (1.32, 1.94)"},
      {"measurement": "omeprazole AUC0-t geometric mean ratio (CI)", "setting": "CYP2C19 [4]; [15]", "value": "1.602 (1.34, 1.91)"},
      {"measurement": "omeprazole Cmax geometric mean ratio (CI)", "setting": "CYP2C19 [4]; [15]", "value": "1.275 (1.01, 1.61)"}
    ]}
  ]
}
